Here are results for six molecules from US5358947A, “Angiotensin II receptor blocking 2,3-substituted pyrazolo[1,5-a]-1,3,5-triazin-4(3H)-ones” (American Cyanamid Company, priority 1993, dated 1994).

The term IC50 denotes the concentration at which inhibition is half-maximal. Low readings indicate inhibition by little substance, high ones a need for much substance.

This assay concerns the target T1, Angiotensin II Receptor (Bos taurus, UniProt P25104).
T1 construct: The brownish tissue forming the adrenal cortex is scraped off and finely minced with scissors before homogenization; tissue local slaughter house (Maxwell-Cohen); host or cells: beef adrenal cortex, microsomal membranes (100,000×g pellet)
T1 sequence (P25104 1-359): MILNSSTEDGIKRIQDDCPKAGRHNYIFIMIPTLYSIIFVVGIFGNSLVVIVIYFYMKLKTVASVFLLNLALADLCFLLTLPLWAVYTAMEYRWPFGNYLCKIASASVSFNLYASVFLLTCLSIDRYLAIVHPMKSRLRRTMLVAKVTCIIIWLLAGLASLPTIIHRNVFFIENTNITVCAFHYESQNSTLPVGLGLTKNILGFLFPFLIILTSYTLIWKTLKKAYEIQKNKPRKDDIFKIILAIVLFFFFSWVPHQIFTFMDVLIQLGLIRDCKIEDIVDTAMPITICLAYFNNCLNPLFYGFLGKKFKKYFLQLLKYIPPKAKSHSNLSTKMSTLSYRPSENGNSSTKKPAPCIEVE
Put plainly: Angiotensin II receptor binding assay ([125I](Sar1,Ile8)AngII displacement, beef adrenal cortex membranes). The conditions noted are these: 60 minutes, room temperature. An excerpt:
Beef adrenals are obtained from a local slaughter house (Maxwell-Cohen). [^125 I](Sar^1,Ile^8)AngII, S.A. 2200 Ci/mmole, is purchased from Dupont (NEN®, Boston, Mass.). all unlabeled AngII analogs, Dimethylsulfoxide (DMSO), nucleotides, bovine serum albumin (BSA) are purchased from Sigma Chemical Co , St Louis, Mo. U.S.A.
Approximately sixteen (16) to twenty (20) beef adrenal glands are processed as follows: fresh adrenal glands received on crushed ice are cleaned of fatty tissues and the tough membranes encapsulating the glands are removed and discarded. The brownish tissue forming the adrenal cortex is scraped off and finely minced with scissors before homogenization. Care is taken to avoid contamination with medullary tissue during dissection. The scraped cortices are suspended in twenty volumes of an ice-cold buffer medium consisting of 10 mM Tris.HCl (pH 7.4 at 22° C.) and containing 1.0 mM EDTA and 0.2M sucrose. Unless otherwise indicated, all subsequent operations are done at 4° C. The tissue is homogenized in a glass homogenizer with a motor driven teflon pestle with a clearance of 1.0 mm. The homogenate is centrifuged first at low speed (3,000×g) for 10 minutes. The resulting pellet is discarded and the supernatant fluid recentrifuged at 10,000×g of 15 minutes to give a P2 pellet. This P2 pellet is discarded and the liquid phase is carefully decanted off in clean centrifuge tubes and recentrifuged at high speed (100,000×g) for 60 minutes. The translucent final pellet is harvested and combined in a small volume (20-50.0 ml) of 50.0 mM Tris.HCl buffer, pH 7.2. A 100 ul aliquot is withdrawn and the protein content of the preparation is determined by the Lowry's method (Lowry, O. H., Rosebrough, N. F., Farr, A. L. and Randall, R. J., Protein measurement with Folin phenol reagent. J. Biol. Chem., […], 265-275, 1951). The pelleted membrane is reconstituted in 50.0 mM Tris.HCl buffer containing 0.1 mM of phenylmethylsulfonyl fluoride (PMSF) to give approximately a protein concentration of 2.5 mg per ml of tissue suspension. The membrane preparation is finally aliquoted in 1.0 ml volumes and stored at -70° C. until use in the binding assays.
Binding of[^125 I](Sar^1,Ile^8)AngII
The binding of [^125 I](Sar^1 Ile^8)AngII to microsomal membranes is initiated by the addition of reconstituted membranes (1:10 vols.) in freshly made 50.0 mMTris.HCl buffer, pH 7.4 containing 0.25% heat inactivated bovine serum albumin (BSA): 80 ul membrane protein (10 to 20 ug/assay) to wells already containing 100 ul of incubatin buffer (as described above) and 20 ul [^125 I](Sar^1,Ile^8)AngII (Specific Activity 2200 Ci/mmole). Non-specific binding is measured in the presence of 1.0 uM unlabeled (Sar^1,Ile^8)AngII, added in 20 ul volume. Specific binding for [^125 I](Sar^1, Ile^8)AngII is greater than 90% In competition studies, experimental compounds are diluted in dimethylsulfoxide (DMSO) and added in 20 ul to wells before the introduction of tissue membranes. This concentration of DMSO is found to have no negative effects on the binding of [^125 I](Sar^1, Ile^8)AngII to the membranes. Assays are performed in triplicate. The wells are left undisturbed for 60 minutes at room temperature. Following incubation, all wells are harvested at once with a Brandel® Harvester especially designed for a 96 well plate (Brandel®Biomedical Research & Development Labs. Inc., Gaithersburg, Md., U.S.A.). The filter discs are washed with 10×1.0 ml of cold 0.9% NaCl to remove unbound ligand. […] This method is routinely used. The filters are removed from the filter grid and counted in a Parkard® Cobra Gamma Counter for 1 minute. (Packard Instrument Co., Downers Grove, Ill., U.S.A.). The binding data are analyzed by the non-linear interactive "LUNDON-1" program (LUNDON SOFTWARE Inc., Cleveland, Ohio U.S.A.). […]

Where a name gives a salt, the structure may show the parent alone.

For the molecule `CCCCc1nc2cc(-c3ccccc3)nn2c(=O)n1Cc1ccc(-c2ccccc2-c2nnn[nH]2)cc1` [Example 10, 2-Butyl-7-phenyl-3-[[2'-(1H-tetrazol-5-yl)[1,1'-biphenyl]-4-yl]methyl]pyrazolo[1,5-a]-1,3,5-triazin-4(3H)-one], the IC50 came to 760 nM. For `CCCCc1nc2cc(-c3ccco3)nn2c(=O)n1Cc1ccc(-c2ccccc2-c2nnn[nH]2)cc1` [Example 11, 2-Butyl-7-(2-furanyl)-3-[[2'-(1H-tetrazol-5-yl)[1,1'-biphenyl]-4-yl]methyl]pyrazolo[1,5-a]-1,3,5-triazin-4(3H)-one] the value was 670 nM; for `CCCCc1nc2cc(-c3ccc(F)cc3)nn2c(=O)n1Cc1ccc(-c2ccccc2-c2nnn[nH]2)cc1` [Example 12, 2-Butyl-7-(4-fluorophenyl)-3-[[2'-(1H-tetrazol-5-yl)[1,1'-biphenyl]-4-yl]methyl]pyrazolo[1,5-a]-1,3,5-triazin-4(3H)-one], 63 nM; for `CCCCc1nc2ccnn2c(=O)n1Cc1ccc(-c2ccccc2-c2nn[nH]n2)cc1` [Example 17, 2-Butyl-3-[[2'-(1H-tetrazol-5-yl)[1,1'-biphenyl]-4-yl]methyl]pyrazolo[1,5-a]-1,3,5-triazin-4(3H) -one], 1200 nM. `CCCCc1nc2c(Br)cnn2c(=O)n1Cc1ccc(-c2ccccc2-c2nn[nH]n2)cc1` [Example 20] came in with a concentration for half-maximal inhibition (IC50) of 4000 nM. Under `CCCCc1nc2ccnn2c(=O)n1Cc1ccc(-c2ccccc2-c2nn[nH]n2)cc1` [Example 21, 2-Butyl-3-[[2'-(1H-tetrazol-5-yl)-[[1,1'-biphenyl]-4-yl]methyl]-pyrazolo[1,5-a]-1,3,5-triazin-4(3H)-one potassium salt] stands 3000 nM.
